Entries after “also recorded” stand apart in the source; their conditions may differ. Peptide text beside a SMILES is read from it. * marks the point of attachment. 5FAM = O=C1OC2(c3ccc(O)cc3Oc3cc(O)ccc32)c2ccc(C(=O)*)cc21; FAM = carboxyfluorescein

Assay type in all cases: cell-based
One data set relates to A549 cells. Description: FACS binding analysis of CPP conjugated liposomes. The following applies: FAM-CPP conjugated to hyaluronan coated liposomes, 30 minutes on ice. As to the method:
Liposome preparation was carried out as described in Peer D., at al., 2008, Science 319, 627-630, Briefly, liposomes (60% soy-pc, 20% DPPE 20% cholesterol mol/mol) were prepared at a concentration of 40 mg/ml (Soy PC-273 mg, DPPE-81.2 mg Cholesterol-145.4 mg in 10 ml of ethanol). After a complete dissolvent, the solution was evaporated in a rotary evaporator (BUCHI R-210). Following the evaporation the dry lipid film was hydrated in 10 ml of HEPES (PH 7.4) and the solution was shaken (2 hr 65° C.). The MLV were reduced to ULV with an average size of ˜150 nm (Zetasizer Nano ZS system) by passing them through an extruder (Lipex) using filtration membranes in a serially manner ([…]). Average zeta potential of the ULV was −3 mV (Zetasizer Nano ZS system).
Hyaluronan (HA) (700 KDa Lifecore) was dissolved in 0.2M MES buffer (PH 5.5) to a final concentration of 5 mg/ml. HA was activate with EDC and solfo-NHS at a molar ratio of 1:1:6. After 30 min of activation the liposomes were added and the pH was adjusted to 7.4. The solution was incubated at room temp (2 hr). The free HA was removed by 3 repeated ultracentrifugations. The resulting HA-ULV's were at an average of 175 nm in size.
CPPs S22 (SEQ ID NO: 1), S24 (SEQ ID NO: 2) and S8 (SEQ ID NO: 6) and Control CPPs; 9R with additional C-terminal Lysine, 9R-K (SEQ ID NO: 40) and N2 (SEQ ID NO: 22), were dissolved to a concentration of 1 mg/ml. HA-ULV's (250 μl of 40 mg/ml) were activated with 1 ml of 0.4M EDC and 1 ml of 0.4 mM solfo-NHS. After 30 min the activated liposomes were divided into 5 test tubes (250 μl per each tube) and a different CPP (50 μl) was added. After incubation at RT for 2 hr, the CPP-HA-ULVS were dialyzed over night with PBS buffer (0.5 L/3 buffer changeovers) to remove unbound CPP, using dialysis bags with a cutoff 3500 Da.
For binding analysis, 3.5×10^5 cells were trypsinized, spin down, re-suspended with FACS buffer (1% fetal bovine serum in 1×PBS), incubated for 30 minutes on ice with different CPPs (Conjugated to FAM fluorophore) and washed with 1 ml FACS buffer.
In general terms: A flow cytometer gives signals particle by particle.

The next data set has as its system A549 cell line. Nature of the data set: Internalization assay of CPP conjugated liposomes by confocal microscopy. The conditions noted are these: CPP conjugated to liposomes, 50 μl, 1 hour, 37° C. As to the method:
(§1) Internalization assay was performed in 24 well plates. A549 or NRK cells were seeded on cover slips in RPMI or DMEM medium respectively, supplemented with antibiotics, L-Glutamine and 10% fetal calf serum (Biological industries, Beit Haemek).
(§2) For membrane staining, cells were stained with CellTracker™ DilC18 (5)-DS solution (Invitrogen, Carlsbad, Calif., USA), diluted 1:5000 with PBS. For internalization experiments involve NPs Concanavalin A, Alexa fluor 647 conjugate (10 μg/ml) (C21421, Invitrogen,) was used to label cell membrane. For nuclei staining, cells were stained with Hoechst (1:10,000 in PBS) (33258, Sigma). Cells were exposed to CPPs only (10 μM) or CPP-liposome complex (50 μl from stock, according to preparation method) or liposome only (50 μl from the prepared liposomal stock solution) in medium without serum for a period of 1 hour at 37° C. in a humidified atmosphere with 5% CO2. Subsequently, the cells were washed twice using cold PBS, fixated with 4% Paraformaldehyde (PFA) and washed again with cold PBS. Membrane and nuclei staining were preformed after fixation. The cells were mounted by fluorescent mounting medium (Golden Bridge international, Mukilteo, Wash., USA) and fluorescent was measured using Andor Spinning disc confocal microscope and the Meta 510 Zeiss LSM confocal microscope. Laser beams at 405, 488, 561 and 650 nm were used for UV, FAM, Rhodamine, Concavaline A and CellTracker™, fluorophores excitation respectively. Serial optical sections of the cells were recorded for each treatment and the images were processed using Zeiss LSM Image browser software.

Data set [1] deals with HeLa cells. Nature of the data set: Confocal microscopy of peptide membrane penetration and cellular distribution. The conditions noted are these: 5 uM, 37° C. As to the method:
To determine qualitative validation of peptide membrane penetration, HeLa cells from 5 ml of confluent T75 flask were seed in 12 well plate at 10×10^4 cells/mL in 0.5 ml DMEM supplied with 10% Fetal Calf Serum. […] DiD (DiD-[1,1′-Dioctadecyl-3,3,3′,3′-tetramethylindodicarbocyanine iodide] Lipophilic membrane tracer) (5 ug/ml) was added to each well and incubated for 5 min at 4° C., washed twice with cold PBS and fixed with 3.7% PFA 20′ RT. Cells were rinsed with PBS and mounted on slides for confocal microscopy analysis.

The test system of the next data set is NRK cell line. Description: Internalization assay of CPP conjugated liposomes by confocal microscopy. The following applies: CPP conjugated to liposomes, 50 μl, 1 hour, 37° C. As to the method:
as §1, §2

Data set [2] relates to HeLa cells. Nature of the data set: Flow cytometry (FACS) quantification of cellular uptake of FAM labeled peptides. The conditions noted are these: FAM labeled peptide, 10 uM, 37° C., 1 hour, average of a number of experiments. As to the method: To determine the efficiency of peptide loading, HeLa cells (ATCC number CCL-2TM (Manassas, Va.) grown in DMEM medium with stabilized glutamine supplemented with 10% fetal calf serum (Biological Industries, Beit Haemek, Israel), were seeded at a density of 20,000 per well in 96 U shape-well plates (Nunc A/S, Roskilde, Denmark) in serum containing DMEM (D-Mem W/O Na Pyr, product number 41965039).
After 24 hours, the cells were washed twice with 300 μL serum free OptiMEM (Reduced Serum Media, buffered with HEPES and sodium bicarbonate and supplemented with hypoxanthine, thymidine, sodium pyruvate, L-glutamine, trace elements and growth factors) medium and incubated in 50 μL serum free OptiMEM, containing peptides in the appropriate concentrations for 1 hour at 37° C. Each condition was tested in triplicates. After incubation, cells were washed with serum free medium, detached by trypsinization for 5 minutes, suspended in ice-cold PBS (phosphate buffered saline) containing 0.1% (w/v) BSA (bovine serum albumin), and measured immediately by flow cytometry (BD FACS Calibur System, Becton Dickinson, Heidelberg, Germany). The fluorescence of approximately 10,000 vital cells was acquired and gated based on sideward and forward scatter. Peptides used as positive controls were Tat(47-57) (SEQ ID NO:19; Jain M, et al., Cancer Res. 2005 Sep. 1; 65(17):7840-6), 9R (SEQ ID NO:21; Mueller J, et al., Bioconjug Chem. 2008 December; 19(12):2363-74) and penetratin (SEQ ID NO:20; Mueller J, et al., Bioconjug Chem. 2008 December; 19(12):2363-74). Negative control peptides N2 (SEQ ID NO:22) and N5 (SEQ ID NO:23) were designed according to Handbook [Cell-Penetrating Peptides, Second Edition, Edited by Ülo Langel, CRC Press 2007, Print ISBN: 978-0-8493-5090-0] and [US Patent Application 20080234183].

Data set [3] is described as follows: In vitro cytotoxicity by LDH (lactate dehydrogenase) analysis. The following applies: human. As to the method: In order to assess the in vitro cytotoxicity of the peptides, an LDH (lactate dehydrogenase) analysis was carried out, using LDH kit (Promega G1782), according to manufacturer instructions.
Briefly, HeLa cells from 5 ml of confluent T75 flask were seed in 96 well plate at 10×10^4 cells/mL in 0.1 ml DMEM supplied with 10% Fetal Calf Serum. After 24 hrs incubation with growth medium, wells were replaced with Serum Free growth medium for 24 hrs, and then cells were washed with OptiMEM and replaced with 0.1 ml peptide solution at 10 uM for 1 h at 37° C. 50 ul of supernatant were transferred to the new plate and detected according to Cyto Tox 96, Non Radioactive cytotoxicity assay, (LDH kit Promega G1782). Table 5 presents the results of in vitro cytotoxicity measurements by LDH for S22, S24, S36 and S40 peptides and two positive control peptides; Tat(47-57) and R9. LDH experiment was done with fluorescent labeled (5-FAM) peptides in concentration of […] and the % of cytotoxicity was measured by LDH levels.

With “RRRRRRRRRK [9R-K, positive control, 9R with additional C-terminal Lysine, reference compound]”, the “binding to A549 cells (FACS)” value in the data set with A549 cells was “high binding levels”.

Take “VATIKSVSFYTRK [N2, negative control peptide, reference compound]”: in the data set with A549 cell line, the “internalization into A549 cell line (confocal)” value is on record as “did not show internalization effect”. The “binding to A549 cells (FACS)” value with A549 cells is “lower binding effect”.

With `CC[C@H](C)[C@H](NC(=O)[C@H](CCCNC(=N)N)NC(=O)[C@H](CCCNC(=N)N)NC(=O)[C@H](CS)NC(=O)[C@@H](NC(=O)[C@H](CCCCN)NC(=O)[C@H](CCCCN)NC(=O)c1ccc2c(c1)C(=O)OC21c2ccc(O)cc2Oc2cc(O)ccc21)[C@@H](C)O)C(=O)N[C@@H](CC(N)=O)C(=O)N[C@@H](Cc1ccc(O)cc1)C(=O)N[C@@H](CS)C(=O)N[C@@H](C)C(=O)N[C@@H](CC(C)C)C(=O)N[C@@H](CC(N)=O)C(=O)N[C@@H](CCCCN)C(N)=O` [S22, KKTCRRINYCALNK] (5FAM-KKTCRRINYCALNK-NH2; N-terminus and C-terminus assumed), the “accumulation of FAM labeled peptide inside the cell (confocal images)” value in the data set on HeLa cells [1] was “strong cell membrane penetration capability; also recorded: efficient cellular uptake and intracellular accumulation”. Also, in the data set with NRK cell line, the “internalization into NRK cell line (confocal)” value is on record as “weak internalization; also recorded: better penetration into NRK in a comparison with peptide only”. For the same compound, the “internalization into A549 cell line (confocal)” value in the data set on A549 cell line is reported as “significant internalization effect”. Besides, the “Geometric mean of FL1 intensity” value with HeLa cells [2] is on record as 206.4275. In addition, the cytotoxicity at 1 h, 10 µM in data set [3] was 7%. For the same compound, the “binding to A549 cells (FACS)” value in the data set on A549 cells is given as “high binding levels”.

With KPSARMLLLKGFGK [S8], the “internalization into NRK cell line (confocal)” value in the data set with NRK cell line is “weak internalization”. Also, the “Geometric mean of FL1 intensity” value in the data set on HeLa cells [2] is 52.29. The “binding to A549 cells (FACS)” value in the data set with A549 cells is “lower binding effect”.

Regarding “KKLALYLLLAL ({FAM}-KKLALYLLLAL-NH2) [S67]”, the “Geometric mean of FL1 intensity” value in the data set with HeLa cells [2] was determined as 27.9.

The values are drawn from US20140056811A1, “NEW CELL-PENETRATING PEPTIDES AND USES THEREOF” (COMPUGEN LTD., priority 2010, published 2014).
